Experimental data taken from ChEMBL document CHEMBL1687784, “Frequency of spontaneous resistance to fosfomycin combined with different antibiotics in Pseudomonas aeruginosa” (2010).
≈ marks a conversion by molar mass, not a printed value.

Key:
[1] = tested on: Pseudomonas aeruginosa; experiment: Antimicrobial activity against Pseudomonas aeruginosa PA14 by EUCAST method; type: functional
[2] = tested on: Pseudomonas aeruginosa; experiment: Antimicrobial activity against Pseudomonas aeruginosa PA14 mutS gene hypermutant by EUCAST method; type: functional

Question: Which MIC [1] does the source give for `NCC[C@H](O)C(=O)N[C@@H]1C[C@H](N)[C@@H](O[C@H]2O[C@H](CN)[C@@H](O)[C@H](O)[C@H]2O)[C@H](O)[C@H]1O[C@H]1O[C@H](CO)[C@@H](O)[C@H](N)[C@H]1O` [AMIKACIN] here?
Answer: 1 µg/mL (≈ 1.71 µM)

Question: And the MIC [2]?
Answer: 1 µg/mL (≈ 1.71 µM)

Question: How did the MIC [1] turn out when `CC(C)(O/N=C(\C(=O)N[C@@H]1C(=O)N2C(C(=O)[O-])=C(C[n+]3ccccc3)CS[C@H]12)c1csc(N)n1)C(=O)O` [CEFTAZIDIME] was run?
Answer: 1 µg/mL (≈ 1.83 µM)

Question: What about the MIC [2] of the same compound?
Answer: 1 µg/mL (≈ 1.83 µM)

Question: Which results are given for `O=C(O)c1cn(C2CC2)c2cc(N3CCNCC3)c(F)cc2c1=O` [CIPROFLOXACIN]?
Answer: MIC [1]: 0.1 µg/mL (≈ 0.302 µM); MIC [2]: 0.1 µg/mL (≈ 0.302 µM)

Question: `C[C@@H]1O[C@@H]1P(=O)(O)O` [FOSFOMYCIN] was tested. Which MIC [1] did it give?
Answer: 8 µg/mL (≈ 57.9 µM)

Question: And the MIC [2]?
Answer: 8 µg/mL (≈ 57.9 µM)

Question: Which MIC [1] does the source give for `C[C@@H](O)[C@H]1C(=O)N2C(C(=O)O)=C(SCCNC=N)C[C@H]12` [IMIPENEM ANHYDROUS] here?
Answer: 0.5 µg/mL (≈ 1.67 µM)

Question: And the MIC [2]?
Answer: 0.5 µg/mL (≈ 1.67 µM)

Question: With `C[C@@H](O)[C@H]1C(=O)N2C(C(=O)O)=C(S[C@@H]3CN[C@H](C(=O)N(C)C)C3)[C@H](C)[C@H]12` [MEROPENEM] as the compound, how does the MIC [1] read?
Answer: 0.25 µg/mL (≈ 0.652 µM)

Question: What about the MIC [2] of the same compound?
Answer: 0.25 µg/mL (≈ 0.652 µM)

Question: With `NC[C@H]1O[C@H](O[C@H]2[C@H](O)[C@@H](O[C@H]3O[C@H](CO)[C@@H](O)[C@H](N)[C@H]3O)[C@H](N)C[C@@H]2N)[C@H](N)C[C@@H]1O` [TOBRAMYCIN] as the compound, how does the MIC [1] read?
Answer: 1 µg/mL (≈ 2.14 µM)

Question: What about the MIC [2] of the same compound?
Answer: 1 µg/mL (≈ 2.14 µM)

Question: What does the source list for COLISTIN?
Answer: MIC [1]: 0.5 µg/mL; MIC [2]: 0.5 µg/mL
